Measurements as given in patent publication USRE42890E1, “Furazanobenzimidazoles” (Basilea Pharmaceutica AG, priority 2003, dated 2011).
Where two headings read alike, the source gives them in different places.

Legend:
MRC5 = experiment: MTS proliferation assay, MRC5; type: cell-based; settings: MRC5, 72 h incubation, read-out: MTS proliferation assay IC 50 MRC5
In short: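 Read-out: MTS absorbance at 492 nm after 3 h reagent incubation. Before that, cells grew 72 h at 37° C/7.5% CO2 with test compounds at final concentrations of 10 μM, 3 μM, 1 μM and 0.3 μM, added 24 h post-seeding.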

Jurkat = experiment: MTS proliferation assay, Jurkat; type: cell-based, human; settings: 72 h incubation, read-out: MTS proliferation assay IC 50 Jurkat
In short: (§1)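 Absorbance at 492 nm after 3 h with MTS reagent gave the proliferation read-out. Before that, cells in RPMI-1640 complete medium (5% or 10% FCS) were treated 72 h with compound at four final concentrations, 0.3 to 10 μM.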

[1] = test system: adherent cells or suspension cells; experiment: Hoechst 33342 nuclear staining (fraction of apoptotic nuclei); type: cell-based; design: key: 0 relating to no activity; 1 relating to weak activity comprising less than 70% of the cells; score 2 relating to strong activity comprising more than 70% of the cells
Experimental: (§2) Cell lines are cultured in RPMI-1640 tissue culture medium containing either 5% or 10% fetal calf serum, 0.05 mM 2-mercaptoethanol, 2 mM glutamine and penicillin/streptomycin 50 μg/ml (complete medium) (Sigma, Buchs, Switzerland). General growth conditions are 37° C. and 7.5% CO2.
This assay is performed in 96 well tissue culture plates. Appropriate number of cells (adherent cells: 3-5*10^3, suspension cells: 8-10*10^3) are being seeded out in 80 μl complete medium. Adherent cells are incubated for 24 h for proper spreading out before addition of test compounds while suspension cells are immediately treated with test compounds after seeding out. The test compounds are added in 20 μl complete medium containing max 5% DMSO. […] After 24 h or 48 h incubation at culture conditions, 10 μl medium containing Hoechst 33342 dye (Sigma B-2261) at 2-5 μg/ml are added to each well. The assay plates are then further incubated for 30 minutes and subsequently analyzed with a standard inverted fluorescence microscope.
The readout allows the determination of the fraction of apoptotic nuclei as well as other morphological criteria specific for apoptosis as a function of the treatment. The following scores are used: 0 relating to no activity, 1 relating to weak activity comprising less than 70% of the cells and score 2 relating to strong activity comprising more than 70% of the cells.

HeLa = experiment: MTS proliferation assay, HeLa; type: cell-based, human; settings: 72 h incubation, read-out: MTS proliferation assay IC 50 HeLa
In short: as §1

HT1080 = experiment: MTS proliferation assay, HT1080; type: cell-based, human; settings: HT1080, 72 h incubation; read-out: MTS proliferation assay IC 50 HT1080
Experimental: as §2
The following human cell lines (either EGFP transfected or not) are being used: HeLa (ATCC: CCL-2), KB (ATCC: CCL-17), MCF7 (ATCC: HTB-22), SK-BR-3 (ATCC: HTB-30), SK-Mel 1 (ATCC: HTB-67), SK-Mel 28 (ATCC: HTB-72), PC-3 (ATCC: CRL-1435), SW 480 (ATCC: CCL-228), NCl-H460 (ATCC: HTB-177), NCl-H1792 (ATCC: CRL-5895), HT1080 (ATCC: CCL-21), Jurkat (ATCC: TIB-152), Ramos (ATCC: CRL-1596), Raji (ATCC: CCL-86), H9 (ATCC: HTB-176), Hut78 (ATCC: TIB-161), K562 (ATCC: CCL 243), HL-60 (ATCC: CCL 240), U-87MG (ATCC: HTB-14), HepG2 (ATCC: HB-8065), U-2 OS (ATCC: HTB-96), Saos-2 (ATCC: HTB-85), U937 (ATCC: CRL 1593), Hs 578T (ATCC: HTB 126), HBL-100 (ATCC: HTB 124), Molt-4 (ATCC: CRL 1582).
The assay is performed in 96 well tissue culture plates. The cells (range: 1.5*10^3-10^4) are seeded out in 80 μl complete medium 24 h prior to compound treatment. The test compounds are added in 20 μl complete medium containing max 5% DMSO. The final compound concentrations in the assays are 10 μM, 3 μM, 1 μM and 0.3 μM, respectively. The assay plates are incubated for 72 h at culture conditions. The MTS reagent is prepared according to the manufacturer's protocol (Promega G1111). 20 μl MTS reagent are added to each well, the assay plates are quickly spun and incubated for another 3 h at culture conditions. Subsequently, the plates are shortly shaked and absorption measured with a microplate-reader at 492 nm.

| SMILES | IC50 (Jurkat) [µM] | IC50 (MRC5) [µM] | Hoechst 33342 nuclear staining score ([1]; H460, conc 0.01 μm) | Hoechst 33342 nuclear staining score ([1]; H460, conc 0.1 μm) | Hoechst 33342 nuclear staining score ([1]; H460, conc 1 μm) | Hoechst 33342 nuclear staining score ([1]; HeLa, conc 0.01 μm) | Hoechst 33342 nuclear staining score ([1]; HeLa, conc 0.1 μm) | Hoechst 33342 nuclear staining score ([1]; HeLa, conc 1 μm) | Hoechst 33342 nuclear staining score ([1]; Jily, conc 0.01 μm) | Hoechst 33342 nuclear staining score ([1]; Jily, conc 0.1 μm) | Hoechst 33342 nuclear staining score ([1]; Jily, conc 1 μm) | Hoechst 33342 nuclear staining score ([1]; Jurkat, conc 0.01 μm) | Hoechst 33342 nuclear staining score ([1]; Jurkat, conc 0.1 μm) | Hoechst 33342 nuclear staining score ([1]; Jurkat, conc 1 μm) | Hoechst 33342 nuclear staining score ([1]; MRC5, conc 0.01 μm) | Hoechst 33342 nuclear staining score ([1]; MRC5, conc 0.1 μm) | Hoechst 33342 nuclear staining score ([1]; MRC5, conc 1 μm) | Hoechst 33342 nuclear staining score ([1]; PBLs, conc 0.01 μm) | Hoechst 33342 nuclear staining score ([1]; PBLs, conc 0.1 μm) | Hoechst 33342 nuclear staining score ([1]; PBLs, conc 1 μm) | further results |
| --- | --- | --- | --- | --- | --- | --- | --- | --- | --- | --- | --- | --- | --- | --- | --- | --- | --- | --- | --- | --- | --- |
| N#Cc1ccc(C(=O)Cn2c(-c3nonc3N)nc3ccccc32)cc1 [Example 63] | > 1 | > 1 | 0 | 0 | 0 | 0 | 0 | 0 | 0 | 0 | 0 | 0 | 0 | 0 | 0 | 0 | 0 | 0 | 0 | 0 | IC50 (HeLa): > 1 µM; IC50 (HT1080): > 1 µM |
| CC(=O)Nc1nonc1-c1nc2ccccc2n1CC(=O)c1ccccc1 [Example 40] | 0.1 to 1 | > 1 | 0 | 0 | 0 | 0 | 0 | 0 | 0 | 0 | 1 (1 relating to weak activity comprising less than 70% of the cells) | 0 | 0 | 0 | 0 | 0 | 0 | 0 | 0 | 0 | IC50 (HeLa): 0.1 to 1 µM |
| COc1cccc(C(Cn2c(-c3nonc3N)nc3ccccc32)=NO)c1 (mixture of isomers) [Example 24] | > 1 | > 1 | 0 | 0 | 0 | 0 | 0 | 0 | 0 | 0 | 0 | 0 | 0 | 0 | 0 | 0 | 0 | 0 | 0 | 0 | IC50 (HeLa): > 1 µM |
| Nc1nonc1-c1nc2ccccc2n1CC(=NO)c1ccc(Br)cc1 [Example 2, 4-[1-(4-Bromophenacyl)-1H-benzimidazol-2-yl]-furazan-3-ylamine oxime] |  |  | 0 | 0 | 0 | 0 | 0 | 0 |  |  |  | 0 | 0 | 0 | 0 | 0 | 0 | 0 | 0 | 0 | IC50 (MRC5; Homo sapiens): > 1 µM; IC50 (Jurkat; Homo sapiens): > 1 µM; IC50 (HeLa; Homo sapiens): > 1 µM |

Further lines, with some results ahead:

| IC50 (Jurkat) [µM] | SMILES | IC50 (MRC5) [µM] | Hoechst 33342 nuclear staining score ([1]; H460, conc 0.01 μm) | Hoechst 33342 nuclear staining score ([1]; H460, conc 0.1 μm) | Hoechst 33342 nuclear staining score ([1]; H460, conc 1 μm) | Hoechst 33342 nuclear staining score ([1]; HeLa, conc 0.01 μm) | Hoechst 33342 nuclear staining score ([1]; HeLa, conc 0.1 μm) | Hoechst 33342 nuclear staining score ([1]; HeLa, conc 1 μm) | Hoechst 33342 nuclear staining score ([1]; Jily, conc 0.01 μm) | Hoechst 33342 nuclear staining score ([1]; Jily, conc 0.1 μm) | Hoechst 33342 nuclear staining score ([1]; Jily, conc 1 μm) | Hoechst 33342 nuclear staining score ([1]; Jurkat, conc 0.01 μm) | Hoechst 33342 nuclear staining score ([1]; Jurkat, conc 0.1 μm) | Hoechst 33342 nuclear staining score ([1]; Jurkat, conc 1 μm) | Hoechst 33342 nuclear staining score ([1]; MRC5, conc 0.01 μm) | Hoechst 33342 nuclear staining score ([1]; MRC5, conc 0.1 μm) | Hoechst 33342 nuclear staining score ([1]; MRC5, conc 1 μm) | Hoechst 33342 nuclear staining score ([1]; PBLs, conc 0.01 μm) | Hoechst 33342 nuclear staining score ([1]; PBLs, conc 0.1 μm) | Hoechst 33342 nuclear staining score ([1]; PBLs, conc 1 μm) | further results |
| --- | --- | --- | --- | --- | --- | --- | --- | --- | --- | --- | --- | --- | --- | --- | --- | --- | --- | --- | --- | --- | --- |
| > 1 | Cc1cc2nc(-c3nonc3N)n(CC(=O)c3ccc(Cl)cc3)c2cc1C [Example 110] | > 1 | 0 | 0 | 0 | 0 | 0 | 0 | 0 | 0 | 0 | 0 | 0 | 0 | 0 | 0 | 0 | 0 | 0 | 0 | IC50 (HeLa): > 1 µM; IC50 (HT1080): > 1 µM |
| > 1 | COc1ccc(C(=O)Cn2c(-c3nonc3N)nc3cc(C)c(C)cc32)cc1 [Example 111] | > 1 | 0 | 0 | 0 | 0 | 0 | 0 | 0 | 0 | 0 | 0 | 0 | 0 | 0 | 0 | 0 | 0 | 0 | 0 | IC50 (HeLa): > 1 µM; IC50 (HT1080): > 1 µM |
| > 1 | COc1cc2nc(-c3nonc3N)n(CC(=O)c3ccccc3)c2cc1OC [Example 113] | > 1 | 0 | 0 | 0 | 0 | 0 | 0 | 0 | 0 | 0 | 0 | 0 | 0 | 0 | 0 | 0 | 0 | 0 | 0 | IC50 (HeLa): > 1 µM; IC50 (HT1080): > 1 µM |
